Results from patent US20200163885A1, “COMPOSITION FOR DELIVERING PHYSIOLOGICALLY ACTIVE INGREDIENTS INTO BLOOD VESSEL” (LEMONEX INC., priority 2017, published 2020).

Legend:
[1] = Bioactive material loading capacity of porous silica particles; assay type: physicochemical; conditions: particles of Example 2-(3)-4)-(i), distilled water, 1 hour
Description: After loading the negatively charged porous silica particles of Example 2-(3)-4)-(i) with doxorubicin, the absorbance of the supernatant was measured to determine an amount of loaded doxorubicin, and a loading rate (“loading capacity”) of the particles was calculated.
Specifically, 5 mg of porous silica particle powders and 2 mg of doxorubicin were mixed in 1 ml of distilled water, and then settled at room temperature for 1 hour. Subsequently, the solution was centrifuged at 8000 rpm for 10 minutes to settle the particles, and absorbance (λab=480 nm) of the supernatant was measured to determine an amount of the low molecular weight compound remaining in the supernatant without loading. Further, an amount of the loaded low molecular weight compound was calculated (an amount of the loaded low molecular weight compound=an amount of initially added low molecular weight compound−an amount of the low molecular weight compound remaining in the supernatant) so as to determine the loading capacity (loading capacity=bioactive material/porous silica particles, w/w %)
After loading the negatively charged porous silica particles in Example 2-(3)-4)-(i) with irinotecan, absorbance of the supernatant was measured and an amount of loaded irinotecan was calculated, and the loading capacity thereof was determined. […]

[2] = Release of bioactive materials from loaded porous silica particles; assay type: physicochemical; conditions: doxorubicin loaded on porous silica particles, SBF (pH 7.4), 37° C.
Description: 5 mg of porous silica particles loaded with doxorubicin ([…]) was dispersed in SBF (pH 7.4) (total volume: 1 ml), and then the solution was placed in a 1.5 ml tube and maintained in a dynamic condition of performing horizontal agitation at 20 rpm and 37° C. At each time point, the porous silica solution loaded with doxorubicin was settled using a centrifuge, and the absorbance (λa,b=480 nm) of the supernatant was measured to determine an amount of released doxorubicin.
10 mg of porous silica particles loaded with doxorubicin (2 mg) were dispersed in SBF (pH 7.4) inside a dialysis membrane (total volume: 0.5 ml), and then the dialysis membrane was placed in a 1.5 ml SBF tube (pH 7.4) and maintained in static conditions at 37° C. At each time point, the porous silica solution loaded with doxorubicin was settled using a centrifuge, and the absorbance (λab=480 nm) of the supernatant was measured to determine an amount of released doxorubicin.
The solution was maintained in a dynamic condition of performing horizontal agitation at 200 rpm and 37° C.
[…] of porous silica particles loaded with sorafenib (0.1 Mg) were dispersed in 10 ml of 1×PBS. The solution was maintained under a dynamic condition of performing horizontal agitation at 200 rpm and 37° C. At each time point, the porous silica solution loaded with sorafenib was settled using a centrifuge, and the absorbance (λab=270 nm) of the supernatant was measured to determine an amount of released sorafenib.
0.1 mg of particles loaded with retinoic acid were placed in a PBS (pH 7.4) solution containing 5% ethanol and maintained at 37° C. while performing horizontal agitation.
5 mg of particles loaded with p53 peptide were placed in 5 ml of 1×PBS containing 10% FBS or 5 ml of 1×PBS, and maintained under a dynamic environment while rotating at 20 rpm and 37° C. At each time point, centrifugation was conducted at 8500 rpm and a fluorescence intensity of 5(6)-carboxyfluorescein (FAM), which is a fluorescent label bound to p53 peptide from the supernatant ([…]: 480 nm, Emission: 520 nm).
10 μl of porous silica particles loaded with Cy5-siRNA was resuspended in SBF (pH 7.4, 37° C.) (total volume: 0.5 ml) and placed in a 1.5 ml tube. Release of siRNA was performed while horizontally agitating at 60 rpm and 37° C. At each time point, the siRNA-loaded porous silica solution was settled using a centrifuge, and a fluorescence intensity of the supernatant was measured.
20 μg of porous silica particles loaded with siRNA (1 μg) of the above 1) was dispersed in SBF (pH 7.4) inside a dialysis membrane (total volume: 0.5 ml), and the dialysis membrane was placed in a 1.5 ml SBF (pH 7.4) tube, and static conditions at 37° C. were maintained. At each time point, the siRNA-loaded porous silica solution was settled using a centrifuge, and the absorbance (λab=480 nm) of the supernatant was measured to determine an amount of released siRNA.
20 μg of porous silica particles loaded with pDNA (1 μg) were dispersed in SBF (pH 7.4) inside a dialysis membrane (total volume 0.5 ml), and the dialysis membrane was placed in a 1.5 ml SBF (pH 7.4) tube while shaking at 60 rpm and 37° C. At each time point, the porous silica solution loaded with pDNA was settled using a centrifuge and the absorbance (λab=480 nm) of the supernatant was measured to determine an amount of released pDNA.
Porous silica particles loaded with linear DNA (3 μg of linear DNA, 100 μg of porous silica particles) were resuspended in PBS (pH 7.4, 37° C.), and a dialysis membrane having a pore diameter of 20 kDa (the same tube as the tube in FIG. 18). After placing the suspension in the membrane, a dialysis tube was soaked in 1.5 ml of PBS.

[3] = test system: HepG2 cells; assay: Delivery through intravenous injection, HepG2 Xeno; assay type: in vivo, Balb/C nude mouse; conditions: loaded on particles of Example 2-(3)-4)-(i), tail vein, 4 mg/kg
Description: Xeno was prepared in Balb/C nude mouse using HepG2 cells as a human liver cancer cell line. […] An injecting dose of doxorubicin was 4 mg/kg (mouse weight), and 80 μg of doxorubicin and 160 μg of particles were used based on an average body weight of 20 g of 5 to 8-week old Balb/C nude mouse.

[4] = static condition, dialysis membrane

loading of doxorubicin on the particles (colour of solution after centrifugation) [1]: mostly loaded on the particles
time to reach a release rate of 50% ([2]; dynamic condition, 20 rpm): about 1.5 hours
time up to which continuously released ([2]; dynamic condition, 20 rpm): ≥ 12 h
time to reach a release rate of 50% [2, 4]: about 6 days
time up to which continuously released [2, 4]: ≥ 480 h
Compound: COc1cccc2c1C(=O)c1c(O)c3c(c(O)c1C2=O)C[C@@](O)(C(=O)CO)C[C@@H]3O[C@H]1C[C@H](N)[C@H](O)[C@H](C)O1 [doxorubicin]
tumor growth inhibition compared to injection of the material alone [3]: excellent
